We go through two molecules from paper PMC5469758, “Identification of an in vivo orally active dual-binding protein-protein interaction inhibitor targeting TNFα through combined in silico/in vitro/in vivo screening” (Scientific Reports, 2017).

One series relates to Balb/C mice. Briefly: LPS/D-Galactosamine induced lethal shock (TNFα-dependent hepatic shock model). Particulars: livers eight hours after LPS/D-Galactosamine. It is filed as in vivo. On the procedure:
7 weeks-old Balb/C mice were force-fed with 100 μl of a solution of DMSO containing various doses of compound 1 (5 mg down to 0.5 mg) eight hours before receiving an intraperitoneal injection of 200 μl of PBS containing 0.1 μg of LPS and 20 mg of D-Galactosamine. A control group (DMSO) was force-fed with 100 μl of a solution of DMSO alone eight hours before to be injected with 200 μl of LPS/D-Galactosamine solution. Mice survival was monitored for 48 hours after the injection of LPS/D-Galactosamine.
7 weeks-old Balb/C mice were forced-fed with a solution of DMSO containing 5 mg of compound 1 eight hours before receiving an intraperitoneal injection of 200 μl of PBS containing 0.1 μg of LPS and 20 mg of D-Galactosamine. Eight hours after LPS/D-Galactosamine injection, mice were sacrificed by cervical dislocation and livers were harvested, fixed in 4% formalin and embedded in paraffin. […] Slides were scanned with a slide scanner (Perkin Elmer) and analyzed with Pannoramic viewer (3D HISTECH).
7 weeks-old Balb/C mice were forced-fed with a solution of DMSO containing 5 mg of compound 1 eight hours before receiving an intraperitoneal injection of 200 μl of PBS containing 0.1 μg of LPS and 20 mg of D-Galactosamine. Three hours after LPS/D-Galactosamine injection, mice were anesthetized with ketamine/xylazine to recover blood by cardiac puncture. Sera were kept at −80 °C until assay.
TNFα in serum was quantified using U-CyTech biosciences kits (Utrecht, The Netherlands) according to manufacturer’s procedures.
7 weeks-old Balb/C mice were forced-fed with a solution of DMSO containing 5 mg of compound 1 eight hours before receiving an intraperitoneal injection of 200 μl of PBS containing 0.1 μg of LPS and 20 mg of D-Galactosamine. Eight hours after, mice were anesthetized by an injection of ketamine/xylazine to recover blood by cardiac puncture. Sera were kept at −80 °C until assay. Quantification of AST/ALT was performed using Architec ci 8200 analyser (Abbott) with reagent kits from Abbott.

In another series the target is TNFα. Particulars: fluorescence binding assay; cited from earlier work.
Details of series [1]: method as in PMID 25160057. Particulars: cited from earlier work.
Series [2] deals with human TNFα induced apoptosis on the L929 cell line. Put plainly: Neutralization of human TNFα induced apoptosis in L929 cells (MTT). It is filed as cell-based. The conditions noted are these: L929 cells. On the procedure: 80% confluent L929 cells were plated in flat bottom plates at 4 × 10^5 cells per well in 100 μl of DMEM medium containing 10% FBS, 2 mM L-Glutamine, 100 U/ml Penicillin − 100 μg/ml Streptomycin and incubated for one night at 37 °C, 5% CO2. TNFα or TNFβ (150 pg/ml), Actinomycin D (4 μg/ml) and the compounds at different concentrations (ranging from 100 μM to 0.8 μM) were mixed in 150 μl DMEM medium 1% FBS, 2 mM L-Glutamine, 100 U/ml Penicillin−100 μg/ml Streptomycin in U-bottom plates. After two hours incubation at 37 °C, 5% CO2, 100 μl of the mix was added to the plated cells and incubated at 37 °C, 5% CO2 for 24 hours. Supernatants were discarded and 100 μl of MTT at 0.5 mg/ml were added to wells. After two hours, supernatants were discarded and 200 μl of DMSO were then added. Plates were read at 570 nm with a spectrophotometer providing the optical density (OD) of each well. The percentage of neutralization of TNFα by a compound was calculated using equation 3:3 %Neutra=ODcompound−ODTNFα/ODcells−ODTNFα×100
An IC50 could be computed from the percentage of neutralization for each compound.

The test system of another series is TNFα/TNFRI. The arrangement: method as in PMID 16284179. Particulars: cited from earlier work.
Series [3] relates to TNFα induced NF-κB activation in HEK cells. Briefly: HEK-Blue TNFα NF-κB secreted embryonic alkaline phosphatase reporter assay. It is filed as cell-based, human. Particulars: HEK cells. On the procedure:
80% confluent HEK-Blue™ TNFα were plated in flat bottom plates at 5 × 10^4 per well in 100 μl of DMEM containing 2 mM L-Glutamine, 100 U/ml Penicillin − 100 μg/ml Streptomycin and incubated at 37 °C, 5% CO2. Serial dilutions of compounds (ranging from 100 μM to 0.8 μM) were mixed with 400 pg/ml of human TNFα in DMEM containing 2% of FBS, 2 mM L-Glutamine, 100 U/ml Penicillin−100 μg/ml Streptomycin in U-bottom plates. After two hours of incubation at 37 °C, 5% CO2, 100 μl of the mix was added to the plated cells and incubated 24 hours at 37 °C, 5% CO2. 20 μl of supernatants were incubated for 3 hours with 180 μl of QUANTI-Blue™ to reveal secretion of phosphatase alcaline and plates were read at 620 nm with a spectrophotometer providing the optical density (OD).
A general note: Reporter assays use an easily measured gene product as a stand-in for the process of interest.

etanercept: in the series on Balb/C mice, the “expression of cleaved caspase 3 in liver (immunohistochemistry)” value is given as “reduced expression of cleaved caspase 3”; the “liver damage and hemorrhage (H&E histopathology)” value was “reduced liver damage and hemorrhage”.
For orientation: Kd means the concentration at which binding is half-saturated. The IC50 is the concentration that gives 50% inhibition. Regarding `Cc1cc2occ(CN(C)CCN(C)Cc3cn(-c4cccc(C(F)(F)F)c4)c4ccccc34)c(=O)c2cc1C` [SPD304], the dissociation constant Kd at TNFα was 5.4 ± 0.2 µM. Besides, the “toxicity precluding in vivo use” value in series [1] is given as “high toxicity”. Further, the entries for the “concentration above which no cells survived (cellular toxicity)” value in series [2] and in series [3] were “more than 30 µM” and “more than 10 µM”, respectively. Further, the concentration for half-maximal inhibition (IC50) with TNFα/TNFRI was 22 µM.
